We go through 30 molecules from ChEMBL document CHEMBL1124916, “Neural networks applied to quantitative structure-activity relationship analysis” (1990).

What all share (assay type): functional
For experiment [1], the species on record is Mus musculus. Description: Optimal Dose (OD) which cause maximum increase in the life span, after singular injection at log (1/C).
The species named for experiment [2] is Mus musculus. Description: Optimal Dose (OD) which cause maximum increase in the life span, after chronic injection at log (1/C).
For experiment [3], the species on record is Mus musculus. In words: Minimum Effective Dose (MED) which cause 40% increase in life span, after chronic injection at log (1/C).
The species named for experiment [4] is Mus musculus. In words: Minimum Effective Dose (MED) which cause 40% increase in life span, after singular injection at log (1/C).

Regarding `CC1=C(N2CC2)C(=O)C(CC(C)OC(N)=O)=C(N2CC2)C1=O` (stereo not given), the values for the OD in the experiment filed under Mus musculus [1] and in the experiment filed under Mus musculus [2] were 5.18 and 5.79, respectively. Further, the MED in the experiment listed under Mus musculus [3] came to 6.14; in the experiment filed under Mus musculus [4] it was 5.86.
Consider `O=C1C(CCO)=C(N2CC2)C(=O)C(CCO)=C1N1CC1`, for which the OD is listed as 5.6 in the experiment filed under Mus musculus [1] and 6.05 in the experiment filed under Mus musculus [2]. Moreover, the values for the MED in the experiment filed under Mus musculus [3] and in the experiment listed under Mus musculus [4] were 6.54 and 5.93, respectively.
In the same order, the values of `CCC(COC(N)=O)C1=C(N2CC2)C(=O)C(C)=C(N2CC2)C1=O` (stereo not given) are 5.2, 5.66, 6.18 and 6.03.
In the case of `O=C1C=C(N2CC2)C(=O)C(N2CC2)=C1N1CC1` [TRIAZIQUONE], the OD in the experiment listed under Mus musculus [1] was determined as 5.74; in the experiment filed under Mus musculus [2], 6.19. Further, the figures for the MED in the experiment listed under Mus musculus [3] and in the experiment filed under Mus musculus [4] were 6.45 and 6.02, respectively.
In the same order, the values of `CCCC1=C(N2CC2)C(=O)C(C(COC(N)=O)OC)=C(N2CC2)C1=O` (stereo not given) are 4.64, 5.07, 5.63 and 5.01.
As for `COC(COC(N)=O)C1=C(N2CC2)C(=O)C(C)=C(N2CC2)C1=O` (stereo not given) [CARBOQUONE], the figures for the OD in the experiment listed under Mus musculus [1] and in the experiment listed under Mus musculus [2] were 5.03 and 5.66, respectively. Also, the MED in the experiment filed under Mus musculus [3] turned out to be 6.41; in the experiment listed under Mus musculus [4], 5.81.
In the same order, the values of `CCC1=C(N2CC2)C(=O)C(CC)=C(N2CC2)C1=O` are 4.79, 5.09, 5.46 and 4.94.
In the same order, the values of `CC1=C(N2CC2)C(=O)C(CCCOC(N)=O)=C(N2CC2)C1=O` are 5.48, 5.93, 6.18 and 5.55.
In the same order, the values of `CCOC(COC(N)=O)C1=C(N2CC2)C(=O)C(C)=C(N2CC2)C1=O` (stereo not given) are 4.62, 5.22, 6.18 and 5.53.
For the molecule `CCCC1=C(N2CC2)C(=O)C(CCOC(N)=O)=C(N2CC2)C1=O`, the OD worked out at 4.42 in the experiment listed under Mus musculus [1] and 5.23 in the experiment listed under Mus musculus [2]. The figures for the MED in the experiment filed under Mus musculus [3] and in the experiment listed under Mus musculus [4] were 5.68 and 4.9, respectively.
Regarding `COCCOC(COC(N)=O)C1=C(N2CC2)C(=O)C(C)=C(N2CC2)C1=O` (stereo not given), the OD is 4.96 in the experiment filed under Mus musculus [1] and 5.39 in the experiment listed under Mus musculus [2]. For the same molecule, the results for the MED in the experiment listed under Mus musculus [3] and in the experiment listed under Mus musculus [4] were 6.03 and 5.45, respectively.
In the case of `CC1=C(N2CC2)C(=O)C(CCCc2ccccc2)=C(N2CC2)C1=O`, the OD in the experiment listed under Mus musculus [1] was determined as 3.6; in the experiment listed under Mus musculus [2] it was 4.21. In addition, the MED is on record as 4.47 in the experiment filed under Mus musculus [3] and 3.93 in the experiment filed under Mus musculus [4].
Consider `CCC1=C(N2CC2)C(=O)C(CCOC(N)=O)=C(N2CC2)C1=O`, for which the OD worked out at 4.88 in the experiment listed under Mus musculus [1] and 5.48 in the experiment listed under Mus musculus [2]. In addition, the MED in the experiment filed under Mus musculus [3] is reported as 6.25; in the experiment filed under Mus musculus [4], 5.98.
In the same order, the values of `COCCC1=C(N2CC2)C(=O)C(C)=C(N2CC2)C1=O` are 5.12, 5.42, 5.57 and 5.19.
On the same counts, the results for `CC1=C(N2CC2)C(=O)C(C)=C(N2CC2)C1=O` are 4.79, 5.36, 5.66 and 5.36.
With `COCCC1=C(N2CC2)C(=O)C(CCOC)=C(N2CC2)C1=O`, the OD in the experiment filed under Mus musculus [1] was 4.71; in the experiment filed under Mus musculus [2] it was 5.31. Moreover, the MED in the experiment listed under Mus musculus [3] is 5.69; in the experiment filed under Mus musculus [4], 5.18.
On the same counts, the results for `CC1=C(N2CC2)C(=O)C(CCO)=C(N2CC2)C1=O` are 5.25, 5.79, 6.39 and 5.89.
In the case of `CCC1=C(N2CC2)C(=O)C(C)=C(N2CC2)C1=O`, the OD in the experiment listed under Mus musculus [1] was determined as 4.52; in the experiment filed under Mus musculus [2], 5.37. Further, the MED in the experiment listed under Mus musculus [3] was found to be 5.86; in the experiment filed under Mus musculus [4], 5.16.
On the same counts, the results for `CC1=C(N2CC2)C(=O)C(Cc2ccccc2)=C(N2CC2)C1=O` are 4.26, 4.69, 4.85 and 4.74.
For `CCC(OC)C1=C(N2CC2)C(=O)C(C)=C(N2CC2)C1=O` (stereo not given), the OD in the experiment filed under Mus musculus [1] is given as 4.84; in the experiment listed under Mus musculus [2], 5.33. For the same molecule, the MED in the experiment filed under Mus musculus [3] came out at 5.68; in the experiment listed under Mus musculus [4], 5.26.
In the same order, the values of `COC1=C(N2CC2)C(=O)C(OC)=C(N2CC2)C1=O` are 4.32, 5.17, 5.59 and 4.81.
As for `CCOC(COC(N)=O)C1=C(N2CC2)C(=O)C(CC)=C(N2CC2)C1=O` (stereo not given), the values for the OD in the experiment filed under Mus musculus [1] and in the experiment filed under Mus musculus [2] were 4.64 and 5.24, respectively. Besides, the values for the MED in the experiment filed under Mus musculus [3] and in the experiment listed under Mus musculus [4] were 5.76 and 5.4, respectively.
With `CC1=C(N2CC2)C(=O)C(COc2ccccc2)=C(N2CC2)C1=O`, the OD is 3.89 in the experiment filed under Mus musculus [1] and 4.71 in the experiment filed under Mus musculus [2]. Besides, the MED in the experiment filed under Mus musculus [3] is reported as 5.15; in the experiment listed under Mus musculus [4], 4.68.
Take `CCC1=C(N2CC2)C(=O)C(C(COC(N)=O)OC)=C(N2CC2)C1=O` (stereo not given): the OD is 4.92 in the experiment filed under Mus musculus [1] and 5.22 in the experiment listed under Mus musculus [2]. Also, the MED amounted to 6.16 in the experiment listed under Mus musculus [3] and 5.62 in the experiment listed under Mus musculus [4].
In the same order, the values of `CC1=C(N2CC2)C(=O)C(N2CC2)=C(N2CC2)C1=O` are 5.69, 6.21, 6.77 and 6.54.
On the same counts, the results for `CC(C)C1=C(N2CC2)C(=O)C(C(C)C)=C(N2CC2)C1=O` are 4.14, 4.59, 4.77 and 4.36.
Consider `COC(CO)C1=C(N2CC2)C(=O)C(C)=C(N2CC2)C1=O` (stereo not given), for which the results for the OD in the experiment listed under Mus musculus [1] and in the experiment filed under Mus musculus [2] were 5.27 and 5.75, respectively. Also, the MED was found to be 6.9 in the experiment filed under Mus musculus [3] and 6.05 in the experiment filed under Mus musculus [4].
In the same order, the values of `CC1=C(N2CC2)C(=O)C(CCOC(N)=O)=C(N2CC2)C1=O` are 5.46, 5.75, 6.21 and 5.83.
On to `CC(C)C1=C(N2CC2)C(=O)C=C(N2CC2)C1=O`, for which the OD is 4.59 in the experiment listed under Mus musculus [1] and 5.37 in the experiment filed under Mus musculus [2]. Moreover, the MED in the experiment filed under Mus musculus [3] worked out at 5.68; in the experiment filed under Mus musculus [4], 5.16.
On the same counts, the results for `CC1=C(N2CC2)C(=O)C(C(C)C)=C(N2CC2)C1=O` are 4.69, 5.21, 5.6 and 4.96.
